The nature of data set [1]: Mouse pharmacokinetics, plasma. Conditions: single 10 mg/kg IV dose; for half-life / C0 / AUC(0-t) / clearance: female, ICR (CD-1), plasma; for half-life: iv, read-out: plasma t1/2 (converted); for half-life / plasma t1/2: 10 mg/kg; for AUC(0-t): read-out: plasma AUClast; for clearance: read-out: plasma CL. The format is in vivo. As for the experimental part: The PK parameters of compounds 12 and 16 were investigated in both plasma and lung epithelial lining fluid (ELF) after intravenous (IV) administration of compounds at 10 mg/kg in mice (Figure 4 and Table 5). […] Accordingly, these levels of lung penetration (9.5 and 5.2%, respectively) warranted the evaluation of the compounds in an animal model of lung infection using IV dosing.
Unrestrained, nonanesthetized mice (Female ICR (CD-1); Age 5–6 weeks; Size 22 ± 2 g; specific pathogen-free (SPF)) were injected IV with test article formulations via the tail vein. Animals were sacrificed by cardiac puncture under CO2 euthanasia at 0.08, 0.25, 1, 2, 4, 8, and 24 h post dosing. Blood was drawn into tubes coated with EDTA-K3, mixed gently and plasma was then harvested and kept frozen at −70 °C until further processing. To collect […] (BALF), 0.5 mL of PBS was administered once through a tracheal cannula after which about 0.2 to 0.3 mL of BALF was obtained. The BALF was kept on ice and centrifuged within 1 h of collection and the supernatant was harvested and kept frozen at −70 °C. Plasma and BALF samples were analyzed by LC-MS/MS (AB SCIEX API 3000 mass spectrometer). The apparent ELF volume of each BALF sample was estimated using urea as an endogenous marker of the ELF dilution. The urea concentrations in BALF and plasma samples were determined with the QuantiChrom Urea Assay Kit (DIUR-100) (BioAssay Systems) following the manufacturer’s protocol. For each BALF sample, the drug concentration in ELF was calculated as follows: drug concentrationELF = drug concentrationBALF × (urea concentrationplasma/urea concentrationBALF). The PK parameters of each compound after IV dosing (t1/2, C0, AUClast, and CL) were obtained from the noncompartmental analysis (NCA) of the plasma data using WinNonlin.

For another data set, the target named is T1, MMP-2 (Homo sapiens, UniProt P08253).
T1 sequence (P08253 110-660): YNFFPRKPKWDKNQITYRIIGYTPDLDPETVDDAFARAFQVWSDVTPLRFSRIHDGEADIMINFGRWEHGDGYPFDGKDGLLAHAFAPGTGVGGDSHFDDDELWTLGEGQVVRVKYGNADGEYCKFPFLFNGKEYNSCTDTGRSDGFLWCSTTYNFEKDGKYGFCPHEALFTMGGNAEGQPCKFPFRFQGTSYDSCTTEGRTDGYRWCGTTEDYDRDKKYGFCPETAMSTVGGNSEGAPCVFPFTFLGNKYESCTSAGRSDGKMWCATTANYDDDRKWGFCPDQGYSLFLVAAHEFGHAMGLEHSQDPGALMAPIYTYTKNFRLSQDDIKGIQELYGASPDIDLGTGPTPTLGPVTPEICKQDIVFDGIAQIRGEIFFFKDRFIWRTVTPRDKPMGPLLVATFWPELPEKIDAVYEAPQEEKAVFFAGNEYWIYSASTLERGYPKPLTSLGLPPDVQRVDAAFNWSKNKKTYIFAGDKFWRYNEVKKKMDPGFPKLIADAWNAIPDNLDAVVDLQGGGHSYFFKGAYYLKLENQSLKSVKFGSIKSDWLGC
The data set is described as follows: MMP-2 selectivity assay. The format is biochemical. Particulars: human MMP-2. As for the experimental part:
Selectivity of compound inhibition was evaluated against other proteases at concentrations between 0.4 and 200 μM. Activity against rabbit angiotensin-converting enzyme (ACE, Sigma) was assessed using 10 μM fluorogenic substrate Abz-Phe-Arg-Lys(Dnp)-P (Enzo Life Sciences) in 100 mM Tris-HCl pH 7, 50 mM NaCl, 10 μM Zn SO4. Activity against human matrix metalloproteases (MMP)-2 and MMP-9 was assessed in 50 mM HEPES pH 7.5, 10 mM CaCl2, 0.01% Triton X-100 using 4 μM fluorogenic substrate Mca-Pro-Leu-Gly-Leu-Dpa-Ala-Arg-NH2 (Enzo Life Sciences). Activity against MMP-1 and MMP-13 was assessed in 25 mM HEPES pH 7.5, 100 mM NaCl, 100 mM CaCl2, 0.0005% Brij using 7.5 μM fluorogenic substrate Mca-Lys-Pro-Leu-Gly-Leu-Dpa-Ala-Arg-NH2 (Sigma) for MMP-1 and 1.25 μM fluorogenic substrate Mca-Pro-Cha-Gly-Nva-His-Ala-Dpa-NH2 (Millipore) for MMP-13. Activity against human neutrophil elastase (HNE, Enzo Life Sciences) was assessed in 100 mM HEPES pH 7.5, 500 mM NaCl, 0.01% of Triton X-100 using 100 μM fluorogenic substrate MeOSuc-AAPV-AMC (Enzo Life Sciences).

Broadly, the IC50 is the point on the concentration scale where inhibition reaches its midpoint. Read a high IC50 as weaker potency in that assay. As for `COc1cc2sc(CNC(=O)C3(CC(=O)O)Cc4ccccc4C3)nc2cc1OCCC[N+](C)(C)C` [Compound 12], in data set [1], the half-life was approximately 6 h, the C0 came to 92.2 µg/mL, the AUC(0-t) was 610 µg·h/mL and the clearance worked out at 0.3 mL/min/kg. Further, in data set [1], the “plasma t1/2” value was 6.2 h. On MMP-2, this molecule gave an IC50 of more than 200 µM.
As for `COc1cc2sc(CNC(=O)C3(CC(=O)O)Cc4cc(F)c(F)cc4C3)nc2cc1OCCC[N+](C)(CCO)CCO` [Compound 16], in data set [1], the half-life is approximately 6 h, the C0 turned out to be 176 µg/mL, the AUC(0-t) stood at 517 µg·h/mL and the clearance is 0.3 mL/min/kg. The “plasma t1/2” value in data set [1] stood at 6.5 h. Also, the IC50 on MMP-2 was more than 200 µM.

(Values after article PMC9926489, “Chemical Optimization of Selective Pseudomonas aeruginosa LasB Elastase Inhibitors and Their Impact on LasB-Mediated Activation of IL-1β in Cellular and Animal Infection Models” (ACS Infectious Diseases, 2023).)
